The values that follow come from ChEMBL document CHEMBL3988442, “University of Dundee, Small-Polar-MMV Screening Library” (2021).

Assay [1] can be described thus: microbe, parasite or virus in culture. The following applies: Mycobacterium tuberculosis, 96 h, read-out: pIC50 (converted).
Assay [2] is described as follows: microbe, parasite or virus in culture. The following applies: Mycobacterium tuberculosis, 72 h, read-out: pIC50 (converted).

A value given as a limit tells only on which side of the number the result lay.

In the case of `CC(C)NC(=O)CSc1nc(C=Cc2cccs2)n[nH]1`, the IC50 in assay [1] is 103 µM; in assay [2] it was 122 µM.
As for `O=C(CSc1ncnn1-c1ccccc1)N1CCCC1`, the IC50 in assay [1] was 101 µM; in assay [2], 200 µM.
In the same order, the values of `Fc1ccc(Cn2ncc3c2CN(c2noc(C4CC4)n2)C3)cc1` are 26.5 µM and above 50.1 µM.
In the same order, the values of `Cc1cc2n(n1)CC(CNC1CCN(C3CC3)CC1)CN2` (stereo unspecified) are above 50.1 µM and above 50.1 µM.
In the case of `CCOCCNC(=O)Nc1ccc(OCc2noc(C3CC3)n2)cc1`, the IC50 in assay [1] and in assay [2] was above 50.1 µM throughout.
Take `N#Cc1cccc(NCC(=O)NCc2ccco2)c1`: the IC50 in assay [1] is 108 µM; in assay [2] it was 223 µM.
On to `NCCn1cc(C(=O)NCCSC2CCCCC2)nn1`, for which the IC50 in assay [1] was 129 µM; in assay [2] it was 178 µM.
Regarding `CC(C)c1nnc(CNc2ccc(SC(F)(F)F)cc2)o1`, the IC50 in assay [1] is 18.9 µM; in assay [2], 19.3 µM.
Consider `CC(C)COCC(O)Cn1nnc(-c2ccco2)n1` (stereo unspecified), for which the IC50 was 12.9 µM in assay [1] and 88.9 µM in assay [2].
In the case of `CC(C)C(NS(=O)(=O)N1CCOCC1)c1ccccc1` (stereo unspecified), the IC50 in assay [1] and in assay [2] was above 501 µM each time.
Take `COc1ccc(N2CCCN(CCC(N)=O)CC2)cc1`: the IC50 in assay [1] was 240 µM; in assay [2], 345 µM.
`CN1N=C(C(=O)NCc2ccc(Cl)cc2)CCC1=O`: the results for the IC50 in assay [1] and in assay [2] were 38.8 µM and 26.9 µM, respectively.
In the case of `Cc1cc(C(=O)NCC2Cn3nnc(C)c3CO2)no1` (stereo unspecified), the IC50 in assay [1] and in assay [2] was above 50.1 µM in each case.
As to `CC(C)Nc1cc(Cl)ccc1OCCS(C)(=O)=O`, the figures for the IC50 in assay [1] and in assay [2] were 222 µM and 191 µM, respectively.
On the same counts, the results for `Cc1cc(S(=O)(=O)NC(CN)C2CC2)c(F)cc1F` (stereo unspecified) are 18.9 µM and above 501 µM.
Regarding `O=C(c1cnsn1)N1CC=C(c2ccccc2)CC1`, the IC50 in assay [1] was 237 µM; in assay [2], 35.1 µM.
On the same counts, the results for `CSc1ncc(C(=O)N2CCN(c3ccccc3C)CC2C)cn1` (stereo unspecified) are 18.3 µM and 16.4 µM.
On to `CCOC(=O)CSc1ccc(-c2nc(CC)no2)cn1`, for which the IC50 in assay [1] is 27.2 µM; in assay [2] it was 29.9 µM.
As for `CN(CC(=O)N1CCOCC1)Cc1cc(Br)cs1`, the IC50 in assay [1] was 55.2 µM; in assay [2], 114 µM.
Consider `CC(C)c1nnc2n1CCN(C(=O)c1ccc(-n3cnnc3)cc1)C2`, for which the IC50 in assay [1] and in assay [2] was above 50.1 µM each time.
Take `COCCOC1CCN(c2cccc(C)n2)CC1`: the IC50 in assay [1] was 366 µM; in assay [2], 245 µM.
As for `CC(C)(C)OC(=O)N1CCC(n2cc(N)cn2)CC1`, the values for the IC50 in assay [1] and in assay [2] were 287 µM and 202 µM, respectively.
Consider `COc1cc(CN)cc(Br)c1OC`, for which the results for the IC50 in assay [1] and in assay [2] were above 501 µM and 78.5 µM, respectively.
With `Cc1cc(NC(C)c2ccco2)nc(N)n1` (stereo unspecified), the IC50 in assay [1] and in assay [2] was above 501 µM throughout.
`Cc1ccc(OCC(=O)Nc2nnn(C)n2)cc1`: the IC50 was above 501 µM in assay [1] and 274 µM in assay [2].
On the same counts, the results for `CNCCc1ccccc1OC` are 124 µM and 74.4 µM.
Turning to `N#Cc1ccc(S(=O)(=O)NCCCN)cc1C(F)(F)F`, the values for the IC50 in assay [1] and in assay [2] were above 501 µM and 205 µM, respectively.
In the case of `CCOc1cccc(Cn2cnc(CC)cc2=O)n1`, the IC50 in assay [1] and in assay [2] was above 501 µM in each case.
For `O=C(CNCC1CC1)Nc1ccc(F)cc1`, the results for the IC50 in assay [1] and in assay [2] were above 501 µM and 215 µM, respectively.
Consider `Cc1nnc(SCCC(=O)N(C)Cc2c(F)cccc2Cl)[nH]1`, for which the IC50 in assay [1] and in assay [2] was above 50.1 µM each time.
Regarding `CCc1nc(C)c(C(=O)NCC2CCS(=O)(=O)CC2)o1`, the IC50 in assay [1] and in assay [2] was above 501 µM in each case.
Consider `Cc1ccc(CCNc2ncc(C)c(-c3ccnn3C)n2)s1`, for which the IC50 was above 50.1 µM in assay [1] and 11.2 µM in assay [2].
Take `CC(C)c1nc(CSc2nnc(-c3cccs3)n2CC(N)=O)no1`: the IC50 in assay [1] was above 50.1 µM; in assay [2], 30.9 µM.
